Results published in patent US9249106B2, “Substituted hydrazide compounds and use thereof” (Shenyang J & Health Pharmaceutical Co., Ltd., priority 2009, dated 2016).
Converted amounts (≈) assume the structure as drawn. Counter-ions that a name gives are not always drawn.

Legend:
[1] = test system: SK-N-SH (human neuroblastoma cell); assay: Antitumor activity assay in vitro (MTT); format: cell-based; settings: SK-N-SH cells, 72 hours, Bliss method; for IC50: Homo sapiens
Description: (§1) (1) Five cell strains, SK-N-SH (human neuroblastoma cell), NCI-H226 (human lung cancer cell), Bel7402 (human liver cancer cell), A549 (human non-small cell lung cancer), and MCF7 (human breast cancer cell), were thawed and stably passaged for two or three times, respectively, and then digested with trypsin solution (0.25%) so as to be removed from the bottom of culture flasks. The digested cell solution was poured into a centrifuge tube, to which culture media was added to stop the digestion. The centrifuge tube was centrifuged at 1300 r/min for 3 min, the supernatant was removed gently and then 5 mL culture media was added. The cells were pipetted and mixed homogeneously. 10 μL cell suspension was taken into a cell counting plate for counting, wherein the cell concentration was adjusted to 10^4 cells/well. Each well of the 96-well plates, except for A1 well as blank control, contained 100 μL cell suspension. The 96-well plates were placed in an incubator and cultivated for 24 hours.
(§2) (2) 50 μL dimethyl sulfoxide was used to dissolve the test samples, and then a suitable amount of culture media was added so as to reach a final concentration of 2 mg/mL. Then the samples were diluted to 100, 20, 4, 0.8, 0.16 μg/mL in a 24-well plate, respectively. […] The 96-well plates were placed in an incubator and cultivated for 72 hours.
(§3) (3) The culture media containing the compounds in the 96-well plates was discarded, and the cells were washed with phosphate buffered solution (PBS) twice. Each well was added with 100 μL MTT (tetrazole) (0.5 mg/mL), and then placed in an incubator to incubate for 4 hours, after which MTT solution was discarded and 100 μL dimethyl sulfoxide was added thereto. The reaction product of survival cells with MTT, i.e. formazan, was dissolved completely by oscillation on a magnetic oscillator, then placed into a microplate reader to measure the results, and the IC50 values of compounds could be deduced by Bliss method. The control, N′-[(2-hydroxy-3-allyl)phenylmethylene]-2-(4-benzylpiperazin-1-yl)acethydrazide(PAC-1), was produced according to the method of patent WO2008/134474 A2.

[2] = test system: NCI-H226 (human lung cancer cell); assay: Antitumor activity assay in vitro (MTT); format: cell-based; settings: NCI-H226 cells, 72 hours, Bliss method; for IC50: Homo sapiens, read-out: IC50 NCI-226
Description: as §1, §2, §3

[3] = test system: Bel7402 (human liver cancer cell); assay: Antitumor activity assay in vitro (MTT); format: cell-based; settings: 72 hours, Bliss method; for IC50 Bel7402: Bel7402 cells; for IC50: Homo sapiens, Bel-7402, Bel7402 cells
Description: as §1, §2, §3

[4] = test system: A549 (human non-small cell lung cancer); assay: Antitumor activity assay in vitro (MTT); format: cell-based; settings: A549 cells, 72 hours, Bliss method; for IC50: Homo sapiens
Description: as §1, §2, §3

[5] = test system: MCF7 (human breast cancer cell); assay: Antitumor activity assay in vitro (MTT); format: cell-based; settings: MCF7 cells, 72 hours, Bliss method; for IC50: Homo sapiens
Description: as §1, §2, §3

Procaspase-3 = molecular target: T1, Procaspase-3 (Homo sapiens, UniProt P42574); settings: both in vitro and in vivo; cited from earlier work
T1 sequence (P42574 1-277): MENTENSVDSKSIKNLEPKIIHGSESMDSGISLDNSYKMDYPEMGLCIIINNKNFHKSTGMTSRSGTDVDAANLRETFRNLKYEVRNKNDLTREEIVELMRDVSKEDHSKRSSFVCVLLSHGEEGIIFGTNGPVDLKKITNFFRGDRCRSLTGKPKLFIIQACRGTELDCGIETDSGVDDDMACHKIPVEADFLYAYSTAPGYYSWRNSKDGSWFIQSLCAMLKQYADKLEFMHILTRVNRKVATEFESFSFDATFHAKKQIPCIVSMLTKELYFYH

cancer cells = settings: after treatment with PAC-1; cited from earlier work

Compound	IC50 SK [1] [mg/L]	IC50 NCI-226 [2] [mg/L]	IC50 Bel7402 [3] [mg/L]	IC50 A549 [4] [mg/L]	IC50 MCF7 [5] [mg/L]	IC50 [1] [mg/L]	IC50 [2] [mg/L]	IC50 [3] [mg/L]	IC50 [4] [mg/L]	IC50 [5] [mg/L]	activation of Procaspase-3 (Procaspase-3)	time to induction of apoptosis of cancer cells after treatment (cancer cells) [h]
Cl.O=C(NN=Cc1ccc(OCc2ccc(Cl)cc2)cc1O)c1ccc2nc[nH]c2c1 [Example 9, N′-{[2-hydroxy-4-(4-chlorobenzyloxy)]phenylmethylene}-1H-benzo[d]imidazole-6-formhydrazide hydrochloride]	0.2	0.5	1.5	0.9	0.6							
Cc1ccc(O)c(C=NNC(=O)c2ccc3nc[nH]c3c2)c1.Cl [Example 7, N′-[(2-hydroxy-5-methyl)phenylmethylene]-1H-benzo[d]imidazole-6-formhydrazide hydrochloride]	3.2	2.7	5.4	12	1.9							
CC(C)(C)c1cc(C=NNC(=O)c2ccc3nc[nH]c3c2)c(O)c(C(C)(C)C)c1.Cl [Example 1, N′-[(2-hydroxy-3,5-di-tert-butyl)phenylmethylene]-1H-benzo[d]imidazole-6-formhydrazide hydrochloride]	0.08	0.07	0.56	0.4	0.8							
O=C(NN=Cc1c(O)ccc2ccccc12)c1ccc2nc[nH]c2c1 [Example 3, N′-[(2-hydroxy-1-naphthyl)methylene]-1H-benzo[d]imidazole-6-formhydrazide hydrochloride]						3	1.1	2.5	0.7	1.2		
C=CCc1cccc(/C=N/NC(=O)CN2CCN(Cc3ccccc3)CC2)c1O [PAC-1, N′-[(2-hydroxy-3-allyl)phenylmethylene]-2-(4-benzylpiperazin-1-yl)acethydrazide, reference compound]						4.3 (≈ 11 µM)	1.7 (≈ 4.33 µM)	3.8 (≈ 9.68 µM)	1.9 (≈ 4.84 µM)	2.6 (≈ 6.62 µM)	activate Procaspase-3 significantly	≤ 23
Cc1ccc(C=NNC(=O)c2ccc3nc[nH]c3c2)c(O)c1.Cl [Example 2, N′-[(2-hydroxy-4-methyl)phenylmethylene]-1H-benzo[d]imidazole-6-formhydrazide hydrochloride]	2.1	1.0	2.4	1.9	1.8							
C=CCc1cccc(C=NNC(=O)c2ccc3nc[nH]c3c2)c1O.Cl [Example 4, N′-[(2-hydroxy-3-allyl)phenylmethylene]-1H-benzo[d]imidazole-6-formhydrazide hydrochloride]	1.3	0.2	1.3	2	3.3							
N′-{[2-hydroxy-3-(1-methyl-2-allyl)]phenylmethylene}-1H-benzo[d]imidazole-6-formhydrazide hydrochloride [Example 10]	1.1	1.0	3.3	1.2	3.8							
Cl.O=C(NN=Cc1cc(OCc2ccc(Cl)cc2)ccc1O)c1ccc2nc[nH]c2c1 [Example 12, N′-{[2-hydroxy-5-(4-chlorobenzyloxy)]phenylmethylene}-1H-benzo[d]imidazole-6-formhydrazide hydrochloride]	3.0	1.7	3.3	5.8	2.1							
Cl.O=C(Cc1nc2ccccc2[nH]1)NN=Cc1cc(C(=O)CCl)ccc1O [Example 22, N′-[(2-hydroxy-5-chloroacetyl)phenylmethylene]-1H-benzo[d]imidazole-2-acethydrazide hydrochloride]	1.0	0.8	0.5	1.7	3.4							
Cc1ccc(C(C)C)c(C=NNC(=O)c2ccc3nc[nH]c3c2)c1O.Cl [Example 8, N′-[(2-hydroxy-3-methyl-6-isopropyl)phenylmethylene]-1H-benzo[d]imidazole-6-formhydrazide hydrochloride]	3.0	1.0	2.4	1.5	1.7							
Cl.O=C(Cc1nc2ccccc2[nH]1)NN=Cc1cc(OCc2ccccc2)ccc1O [Example 25, N′-[(2-hydroxy-5-benzyloxy)phenylmethylene]-1H-benzo[d]imidazole-2-acethydrazide hydrochloride]	0.4	1.6	3.7	4.1	1.0							
Cl.O=C(NN=Cc1cc(OCc2cccc(Cl)c2)ccc1O)c1ccc2nc[nH]c2c1 [Example 18, N′-{[2-hydroxy-5-(3-chlorobenzyloxy)]phenylmethylene}-1H-benzo[d]imidazole-6-formhydrazide hydrochloride]	1.7	2.3	3.1	1.5	2.7							
Cc1cc(C)c(C=NNC(=O)Cc2nc3ccccc3[nH]2)c(O)c1C.Cl [Example 23, N′-[(2-hydroxy-3,4,6-trimethyl)phenylmethylene]-1H-benzo[d]imidazole-2-acethydrazide hydrochloride]	0.3	0.3	3.1	2.4	2.6							
O=C(NN=Cc1ccccc1O)c1ccc2nc[nH]c2c1 [Example 11, N′-[(2-hydroxy)phenylmethylene]-1H-benzo[d]imidazole-6-formhydrazide hydrochloride]						2.7	2.3	3.2	10	2.3		
Cc1cc(C)c(C=NNC(=O)c2ccc3nc[nH]c3c2)c(O)c1C.Cl [Example 6, N′-[(2-hydroxy-3,4,6-trimethyl)phenylmethylene]-1H-benzo[d]imidazole-6-formhydrazide hydrochloride]	1.8	1.7	2.6	3.1	3.2							
Cl.O=C(NN=Cc1ccc(OCc2ccccc2)cc1O)c1ccc2nc[nH]c2c1 [Example 13, N′-[(2-hydroxy-4-benzyloxy)phenylmethylene]-1H-benzo[d]imidazole-6-formhydrazide hydrochloride]	1.1	2.4	3.7	2.6	1.8							
C=CCN1C(=O)NC(=O)C(C=NNC(=O)c2ccc3nc[nH]c3c2)C1=O (centres unmarked) [Example 14, N′-[(1-allyl-2,4,6-pyrimidinetrione-5-yl)methylene]-1H-benzo[d]imidazole-6-formhydrazide]						0.9 (≈ 2.54 µM)	2.5 (≈ 7.06 µM)	2.2 (≈ 6.21 µM)	10 (≈ 28.2 µM)	1.7 (≈ 4.8 µM)		
